Where two headings read alike, the source gives them in different places.
Test system: 3rd instar cabbage looper
Experiment: cabbage leaf disc dip bioassay, mortality of cabbage looper
Assay type: in vivo
Method: An enzyme preparation, designated A, comprising an enzyme having lipase activity was diluted to 10% of the original concentration. 1 mL of the enzyme was added to 9 mL of phosphate buffered saline (PBS). The diluted enzyme was desalted using a desalting column from Sigma Aldrich. Each column having the capacity to desalt 2.5 mL of enzyme, 4 columns for the enzyme were used. Each column was equilibrated with 25 mL of PBS. 2.5 mL of sample was loaded into the column, the flow thru was discarded. 3.5 mL of PBS was added to elute the desalted enzyme. This flow thru was collected for use in the bioassay. 4.95 mL of the desalted enzyme was added to 99 mL PBS.
The chlorpyrifos insecticide (Sigma 45395) was prepared based on a stock solution of 10× (113 mg/L) using acetone. The insecticide was then diluted further using acetone to a 1:6 ratio.
Approximately 0.3 g of super absorbent granules were placed into 1.25 ounce cups and 6 mL of deionized water was added to hydrate the granules. Discs of green cabbage (2.8 cm) were cut with plastic tubing after the outer leaves had been removed. One disc was used for each individual insect. After cutting, leaf discs were rinsed in deionized water and spin dried in a small salad spinner to remove excess water.
Liquid treatments were poured into either 50 mL glass beakers for the insecticide or medium weigh boats for aqueous treatments and cabbage leaf discs were dipped in the treatment with disposable forceps, tilted to allow excess liquid to run off, and placed into cups with hydrated granules at an angle.
The cabbage leaf discs were dipped in either acetone (enzyme alone treatment) or chlorpyrifos at 18.83 mg/L of acetone. These were set to dry for 1 hr. The cabbage discs were then dipped either in phosphate buffer (chlorpyrifos alone treatments) or Enzyme A (enzyme alone or in combination with chlorpyrifos treatment), along with a 0.03% surfactant supplement.
After the cabbage discs had dried for 1 hr, a single 3rd instar cabbage looper was added to each individual cabbage disc in its cup and a paperboard lid was snapped into place. A total of 20 insects were evaluated for each treatment.
Experiment 2: This experiment was performed similar to Experiment 1, except the chemical insecticide was Clothianidin at 1:2, and the enzyme preparation, designated B, comprises an enzyme having glucosidase activity.
Experiment 3: This experiment was performed similar to Experiment 2, except the enzyme preparations, designated C and D, respectively, each comprises a different enzyme having protease activity.

Compound | LT50 (95% confidence intervals) in days (Experiment 1, estimated time to kill 50% of the insects, Probit analysis, chlorpyrifos 18.83 mg/L, Enzyme A 0.05%, 20 insects per treatment) | mortality at 18.83 µg/mL (Trichoplusia ni, foliar, 168 h, read-out: % Mortality (7DAT), Experiment 1, Abbott's corrected, 7 days after treatment, chlorpyrifos 18.83 mg/L, Enzyme A 0.05%) [%] | LT50 (95% confidence intervals) in days (Experiment 2, Probit analysis, clothianidin 30 mg/L) | LT50 (95% confidence intervals) (Experiment 3, Probit analysis, clothianidin 30 mg/L) [days] | mortality (Trichoplusia ni, foliar, 120 h, Experiment 3, Abbott's corrected, 5 days after treatment, clothianidin 30 mg/L, read-out: % Mortality (5DAT)) [%] | mortality at 30 µg/mL (Trichoplusia ni, foliar, 144 h, Experiment 2, Abbott's corrected, 6 days after treatment, clothianidin 30 mg/L, read-out: % Mortality (6DAT)) [%] | mortality (Trichoplusia ni, foliar, 144 h, Experiment 3, Abbott's corrected, 6 days after treatment, clothianidin 30 mg/L, read-out: % Mortality (6DAT)) [%] | mortality (Trichoplusia ni, foliar, 168 h, Experiment 3, Abbott's corrected, 7 days after treatment, clothianidin 30 mg/L, read-out: % Mortality (7DAT)) [%] | mortality (Trichoplusia ni, foliar, 336 h, Experiment 3, Abbott's corrected, 14 days after treatment, clothianidin 30 mg/L, read-out: % Mortality (14DAT)) [%] | mortality (Trichoplusia ni, foliar, Experiment 3, Abbott's corrected, 8-11 days after treatment, clothianidin 30 mg/L, read-out: % Mortality (8-11DAT)) [%] | mortality (Trichoplusia ni, foliar, Experiment 3, Abbott's corrected, 12-13 days after treatment, clothianidin 30 mg/L, read-out: % Mortality (12-13DAT)) [%]
CCOP(=S)(OCC)Oc1nc(Cl)c(Cl)cc1Cl [Chlorpyrifos, chlorpyrifos] | 11.11 (9.90-12.48) days | 11 | – | – | – | – | – | – | – | – | –
CN/C(=N\[N+](=O)[O-])NCc1cnc(Cl)s1 [Clothianidin] | – | – | 19.37 (16.23-23.38) days | 12.34 | 15 | 0 | 20 | 30 | 45 | 40 | 45

— patent publication US20250287955A1, “METHODS OF […] PLANT FROM INSECT PESTS” (NOVONESIS PLANT BIOSOLUTIONS A/S, priority 2018, published 2025)
